Like-named read-outs stand apart in the source and are kept apart here.

The subject of one series is HIV. The note with it: peptide without selenium, cited from earlier work.
Another series addresses virus gp 120 and CD4 (Human immunodeficiency virus type 1 group M subtype B, UniProt P04578). The note with it: peptide without selenium; only observed at this relatively high concentration; cited from earlier work.
Another series has as its system normal human lung cells. The note with it: up to 10 μM.
The subject of another series is DU-145 cells. Type of series: cell-based.
Another series relates to PC-3 cells. It counts as cell-based.
In another series the test system is normal prostate cells. Type of series: cell-based.

Turning to Se-TYICEVEDQKEE, the “inactivation of HIV” value in the series on HIV-1 (10 μg/ml) is “over 95%”. Besides, in the series on HIV-1 (0.25 mM reduced glutathione), the “concentration for 50% inactivation of HIV” value is 1 microgram per ml. Moreover, the “inhibition of cell infection” value in the series with HIV-1 (0.006 micrograms per ml) is recorded as “over 50%”; in the series on HIV-1 (0.5 micrograms per ml), “over 99%”. Also, the “inactivation of HIV virus” value in the series with HIV-1 (10 micrograms per ml, 0.25 mM reduced glutathione, within 1 hour) worked out at 95%. In addition, the “concentration for 50% (half maximal) inactivation of HIV” value with HIV-1 (1 hour pre-incubation, 0.25 mM reduced glutathione) came to 1 µg/mL. Also, the “concentration of peptide that binds and inactivates HIV in one hour” value with HIV-1 (one hour) amounted to 0.5 µg/mL. Besides, the IC50 in the series on HIV-1 (read-out: concentration for half maximal inactivation of virus, peptide in the medium during infection, after 100-fold dilution in culture medium) is 0.0059 µM; in the series on HIV-1 (read-out: concentration for half maximal inactivation of virus, peptide during the 1 hour pre-incubation), 0.59 µM. Moreover, in the series with HIV-1 (seleno-peptide 0.1 ug/ml, one hour with glutathione 250 uM), the “inactivation of HIV-1 (ability of infected cells to produce virus)” value was found to be 95%. The “increase in effectiveness at preventing infection by coupling selenium to the 12-mer peptide” value in the series with HIV-1 (versus peptide without selenium) is given as 50 fold.
As to “TYICEVEDQKEE [gp120-binding 12-mer peptide]”, in the series on HIV (corresponds to 32 μM), the “peptide concentration with 50% infection blocking activity” value was “about 50 μg/ml”. Further, the IC50 with HIV (read-out: peptide concentration with 50% infection blocking activity) was 32 µM. The “concentration at which an effect on the gp 120-CD4 interaction was observed” value at virus gp 120 and CD4 is listed as 457 micrograms per ml. Besides, in the series on HIV-1 (even at 100 μg/ml, the highest concentration tested), the “effect of peptide without selenium on HIV” value is given as “no significant effect”. For the same substance, the “effect of control peptide solution on HIV-1 inactivation” value with HIV-1 (peptide without selenium) is reported as “no effect”.
Turning to “selenium adduct of dihydrotesterone [SeDHT]”, the sensitivity of cells result in the series on normal human lung cells is “Only the prostate cells are sensitive”; in the series on normal prostate cells, “sensitive”; with colorectal cancer cells, “Only the prostate cells are sensitive”. Besides, the “concentration that kills the cells” value in the series with DU-145 cells and in the series on PC-3 cells was “less than 10 micromolar” each time.
